Literature values, collected in US20250366801A1, “ESTIMATION OF CEREBROVASCULAR RESERVE” (MedTrace Pharma A/S, priority 2024, published 2025).

Details: single standard dose of 1000 mg intravenously; patients with atherosclerotic cerebrovascular disease (Vagal 2009)

CC(=O)Nc1nnc(S(N)(=O)=O)s1 [Acetazolamide, acetazolamide]
time of peak cerebral blood flow augmentation after the intravenous bolus injection: 10 to 15 min
